Measurements as given in ChEMBL document CHEMBL1138904, “2-Aryl(pyrrolidin-4-yl)acetic acids are potent agonists of sphingosine-1-phosphate (S1P) receptors” (Bioorg Med Chem Lett, 2006).
pIC50: −log10 of the molar value. The source made the active and inactive calls. No cut-off for these calls is given here.

What was measured:
[1] = Oral bioavailability in Sprague-Dawley rat at 1 mg/kg, iv and 2 mg/kg, po; type: ADME, organism-based; conditions: in vivo
PBL [2] = assay: Reduction in peripheral blood lymphocyte count in mouse at 10 mg/kg, po relative to control; type: functional; parameters: scale not given: the % may be the effect or the level left
[3] = target: Sphingosine 1-phosphate receptor 2 (Homo sapiens, UniProt O95136); assay: Displacement of [33P]S1P from human S1P2 receptor expressed in CHO cells; type: cell-based
[4] = target: Sphingosine 1-phosphate receptor 5 (Homo sapiens, UniProt Q9H228); assay: Displacement of [33P]S1P from human S1P5 receptor expressed in CHO cells; type: cell-based
[5] = target: T1, Sphingosine 1-phosphate receptor 4 (Homo sapiens, UniProt O95977); assay: Displacement of [33P]S1P from human S1P4 receptor expressed in CHO cells; type: cell-based
T1 sequence (O95977 whole entry): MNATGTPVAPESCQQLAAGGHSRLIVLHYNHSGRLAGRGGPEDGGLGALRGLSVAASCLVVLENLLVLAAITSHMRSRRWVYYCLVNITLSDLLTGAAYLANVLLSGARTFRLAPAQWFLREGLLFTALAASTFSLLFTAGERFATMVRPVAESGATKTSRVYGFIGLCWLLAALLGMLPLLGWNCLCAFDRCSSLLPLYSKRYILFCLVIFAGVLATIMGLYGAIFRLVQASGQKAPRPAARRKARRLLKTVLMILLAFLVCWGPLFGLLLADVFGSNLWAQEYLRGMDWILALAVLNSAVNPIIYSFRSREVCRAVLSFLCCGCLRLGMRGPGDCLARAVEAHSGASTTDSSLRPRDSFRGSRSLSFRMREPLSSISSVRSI

[6] = target: Sphingosine 1-phosphate receptor 3 (Homo sapiens, UniProt Q99500); assay: Displacement of [33P]S1P from human S1P3 receptor expressed in CHO cells; type: cell-based
[7] = target: Sphingosine 1-phosphate receptor 1 (Homo sapiens, UniProt P21453); assay: Displacement of [33P]S1P from human S1P1 receptor expressed in CHO cells; type: cell-based
PBL [8] = assay: […] of peripheral blood lymphocyte in mouse at 1 mg/kg, po; type: functional, organism-based; parameters: dose 1 mg/kg
PBL [9] = assay: […] of peripheral blood lymphocyte in orally dosed mouse; type: functional, organism-based
[10] = Volume of distribution in Sprague-Dawley rat at 1 mg/kg, iv and 2 mg/kg, po; type: ADME, organism-based; conditions: in vivo, read-out: Vss
[11] = Clearance in Sprague-Dawley rat at 1 mg/kg, iv and 2 mg/kg, po; type: ADME, organism-based; conditions: in vivo
[12] = Half life in Sprague-Dawley rat at 1 mg/kg, iv and 2 mg/kg, po; type: ADME, organism-based; conditions: in vivo

Sphingosine 1-phosphate receptor 3, sequence (Q99500 whole entry): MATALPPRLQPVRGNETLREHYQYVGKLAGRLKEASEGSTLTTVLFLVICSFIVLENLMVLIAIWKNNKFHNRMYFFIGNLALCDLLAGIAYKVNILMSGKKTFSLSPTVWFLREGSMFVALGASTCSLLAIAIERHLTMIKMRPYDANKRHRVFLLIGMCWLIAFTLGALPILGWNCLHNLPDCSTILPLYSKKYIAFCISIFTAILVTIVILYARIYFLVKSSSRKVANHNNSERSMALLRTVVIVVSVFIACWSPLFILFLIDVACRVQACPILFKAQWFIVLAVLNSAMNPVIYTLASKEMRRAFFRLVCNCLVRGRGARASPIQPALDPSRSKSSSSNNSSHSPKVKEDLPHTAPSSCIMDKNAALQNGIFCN
Sphingosine 1-phosphate receptor 2, sequence (O95136 whole entry): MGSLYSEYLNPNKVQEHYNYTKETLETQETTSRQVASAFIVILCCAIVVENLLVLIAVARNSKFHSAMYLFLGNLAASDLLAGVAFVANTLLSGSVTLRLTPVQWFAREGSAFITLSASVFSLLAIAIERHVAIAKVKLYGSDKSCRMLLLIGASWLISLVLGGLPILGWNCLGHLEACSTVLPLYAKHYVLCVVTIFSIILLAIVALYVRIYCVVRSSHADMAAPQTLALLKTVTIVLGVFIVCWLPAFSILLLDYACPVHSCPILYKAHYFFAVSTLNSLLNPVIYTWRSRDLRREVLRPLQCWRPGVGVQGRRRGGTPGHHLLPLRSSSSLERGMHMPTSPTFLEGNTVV
Sphingosine 1-phosphate receptor 5, sequence (Q9H228 whole entry): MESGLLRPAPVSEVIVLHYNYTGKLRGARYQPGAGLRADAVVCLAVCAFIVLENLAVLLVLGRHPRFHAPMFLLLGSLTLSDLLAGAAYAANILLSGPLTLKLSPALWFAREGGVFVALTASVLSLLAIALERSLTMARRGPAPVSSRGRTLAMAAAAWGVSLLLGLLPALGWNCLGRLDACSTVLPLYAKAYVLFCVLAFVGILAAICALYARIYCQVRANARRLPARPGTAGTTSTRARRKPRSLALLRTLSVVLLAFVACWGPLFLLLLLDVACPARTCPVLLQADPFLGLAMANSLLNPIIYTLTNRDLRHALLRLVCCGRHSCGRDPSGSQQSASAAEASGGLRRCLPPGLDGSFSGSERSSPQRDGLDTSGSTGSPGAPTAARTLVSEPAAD
Sphingosine 1-phosphate receptor 1, sequence (P21453 whole entry): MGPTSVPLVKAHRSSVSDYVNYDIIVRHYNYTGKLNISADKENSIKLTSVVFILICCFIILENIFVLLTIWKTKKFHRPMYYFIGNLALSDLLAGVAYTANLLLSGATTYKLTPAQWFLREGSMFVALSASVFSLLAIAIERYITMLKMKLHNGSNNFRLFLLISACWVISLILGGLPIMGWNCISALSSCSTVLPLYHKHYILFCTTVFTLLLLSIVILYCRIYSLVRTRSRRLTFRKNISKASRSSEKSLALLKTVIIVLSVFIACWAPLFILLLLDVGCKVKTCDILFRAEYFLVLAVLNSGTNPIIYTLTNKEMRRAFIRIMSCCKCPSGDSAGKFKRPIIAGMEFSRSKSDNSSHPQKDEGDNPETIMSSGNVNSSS

SMILES | bioavailability [1] [%] | pIC50 [3] | pIC50 [4] | pIC50 [5] | pIC50 [6] | pIC50 [7] | Vd [10] [L/kg] | clearance [11] [mL/min/kg] | half-life [12] [h] | pIC50 ([3]; cho) | Activity (PBL [2]) [%] | Activity (PBL [8]) | Activity (PBL [9])
CC(C)Cc1ccc(-c2nc(-c3ccc(CN4CC(C(=O)O)C4)cc3)no2)cc1 | 67 | – | – | – | – | – | – | – | – | – | – | – | –
O=C(O)CC1CNC(c2ccc(OCc3cc(-c4ccccc4)c(C(F)(F)F)s3)cc2)C1 (stereo not given) | – | < 5.00 | 6.41 | 6.41 | 5.68 | 8.66 | – | – | – | – | 39 | – | –
O=C(O)C[C@@H]1CN[C@@H](c2ccc(-c3noc(-c4ccc(C5CCCC5)cc4)n3)cc2)C1 (relative stereo) | – | < 5.00 | 7.17 | 6.92 | < 6.00 | 9.00 | – | – | – | – | – | – | –
CC(C)Cc1ccc(-c2nc(-c3ccc([C@H]4C[C@@H](CC(=O)O)CN4)cc3)no2)cc1 (relative stereo) | 27 | < 5.00 | 6.85 | 6.80 | 5.82 | 8.10 | 2.9 | 3.4 | 10.9 | – | – | – | Active
O=C(O)C[C@@H]1CN[C@@H](c2ccc(-c3noc(-c4ccc([C@@H]5CCC(F)(F)C5)cc4)n3)cc2)C1 (stereo in doubt; 22f) [listing 1 of 2 here] | – | – | 8.29 | 7.49 | 6.16 | 8.92 | – | – | – | < 5.00 | – | – | –
O=C(O)C[C@@H]1CN[C@@H](c2ccc(-c3noc(-c4ccc([C@@H]5CCC(F)(F)C5)cc4)n3)cc2)C1 (stereo in doubt; 22f) [listing 2 of 2 here] | – | – | – | – | – | – | – | – | – | – | – | Active | –
O=C(O)C[C@@H]1CN[C@@H](c2ccc(-c3noc(-c4ccc([C@@H]5CCC(F)(F)C5)cc4)n3)cc2)C1 (stereo in doubt; 22g) [listing 1 of 2 here] | 36 | < 5.00 | 7.96 | 6.10 | 5.96 | 9.10 | 1.3 | 2.1 | 5.6 | – | – | – | –
O=C(O)C[C@@H]1CN[C@@H](c2ccc(-c3noc(-c4ccc([C@@H]5CCC(F)(F)C5)cc4)n3)cc2)C1 (stereo in doubt; 22g) [listing 2 of 2 here] | – | – | – | – | – | – | – | – | – | – | – | Active | Active

Further compounds by rising pIC50 [4], results first:

bioavailability [1] [%] | pIC50 [3] | pIC50 [4] | pIC50 [5] | pIC50 [6] | pIC50 [7] | Vd [10] [L/kg] | clearance [11] [mL/min/kg] | half-life [12] [h] | pIC50 ([3]; cho) | SMILES | Activity (PBL [2]) [%] | Activity (PBL [8]) | Activity (PBL [9])
79 | < 5.00 | 6.52 | 6.82 | < 6.00 | 8.24 | 6.6 | 7.4 | 10.7 | – | CC(C)Cc1ccc(-c2nc(-c3ccc([C@H]4C[C@H](CC(=O)O)CN4)cc3)no2)cc1 (relative stereo) | – | – | –
– | < 5.00 | 6.89 | 5.57 | 5.32 | 7.60 | – | – | – | – | O=C(O)C1CNC(c2ccc(OCc3cc(-c4ccccc4)c(C(F)(F)F)s3)cc2)C1 (stereo not given) | – | – | –
– | < 5.00 | 7.24 | 6.96 | 5.51 | 8.85 | – | – | – | – | O=C(O)C[C@@H]1CN[C@@H](c2ccc(-c3noc(-c4ccc(C5CCCCC5)cc4)n3)cc2)C1 (relative stereo) | – | – | Active
– | < 5.00 | 7.30 | 6.64 | < 6.00 | 8.26 | – | – | – | – | O=C(O)C[C@@H]1CN[C@@H](c2ccc(-c3noc(-c4ccc(CCC(F)(F)F)cc4)n3)cc2)C1 (relative stereo) | – | – | –
23 | < 5.00 | 7.68 | 6.96 | 6.34 | 8.70 | 2.2 | 3.5 | 4.4 | – | O=C(O)C[C@@H]1CN[C@@H](c2ccc(-c3noc(-c4ccc(C5CCC(F)(F)CC5)cc4)n3)cc2)C1 (relative stereo) | – | Active | Active
